According to patent US10774084B2, “Adenine derivatives and their use as UV-photoprotective agents” (UNIVERZITA PALACKEHO V OLOMOUCI, priority 2015, dated 2020):

Experiments:
HaCaT = test: In vitro phototoxicity test (neutral red) on HaCaT; type: cell-based, human
Description: Spontaneously Immortalized Aneuploid Human Keratinocyte Cell Line (HaCaT) was bought from CLS (Eppeheim, Germany) and used as an in vitro model. For all experiments the keratinocytes were seeded onto 96-well plates at a density of 1.6×10^5 cells/ml (0.2 ml per well) of growth medium (DMEM supplemented with fetal bovine serum (10%), penicillin ([…]) and streptomycin (100 U/ml)).
Test substances included compounds number 3, 9, 15 and 20. Compounds were dissolved in DMSO and then diluted in serum free medium (DMEM supplemented penicillin (100 mg/ml) and streptomycin (100 U/ml)). After 24 h incubation was growth medium changed to serum free medium containing test compound or DMSO (negative control). The final applied concentrations range was 3.9-125 μmol/l. As a control, serum free medium supplemented with appropriate concentration of DMSO (0.5%, v/v) was used. In parallel with test compound, chlorpromazine (CPZ; 0.8-50 μmol/l) was used as a known phototoxic compound. The test compound was in parallel applied on two 96-well plates with HaCaT. After 60 minutes incubation with test compound medium was discarded, cells were washed two-times with PBS and PBS supplemented with glucose (1 mg/ml) was applied. A plate was then exposed to a non-cytotoxic dose of UVA radiation (5.0 J/cm2) using a solar simulator SOL 500 (Dr. Hoenle Technology, Germany) equipped with a H1 filter transmitting wavelengths of 320-400 nm. Intensity of UVA radiation was evaluated before each irradiation by UVA-meter. A control (non-irradiated) plate was for the period of irradiation incubated in dark. After UVA exposure PBS with glucose was discarded and serum free medium was applied. After 24 hours (37° C., 5% CO2) cell damage was evaluated by neutral red (NR) incorporation into viable cells. Medium was discarded and NR solution (0.03% w/v, PBS) was applied. After 60 minutes NR solution was discarded, cells were fixed with a mixture of formaldehyde (0.5%, v/v) and CaCl2 (1%, m/v) in ratio 1:1 and then NR was dissolved in methanol (50%, v/v) with acetic acid (1%, v/v). After 5 minutes of intensive shaking absorbance was measured at 540 nm. Experiments were performed in four independent repetition with use of cells from four donors to minimize individual sensitivity of donor cells. Phototoxic effect was evaluated as % of viability of control cells that was calculated from experimental data (absorbance) according to the following equation: […]
AS . . . absorbance of sample (cells pre-incubated with test compound in serum free medium and irradiated)
AC . . . absorbance of control (cells pre-incubated with DMSO in serum free medium and irradiated)
AB . . . absorbance of background (extraction solution)

[1] = system: Normal human dermal fibroblasts (NHDF); test: In vitro UVA/UVB photoprotection test on NHDF (Example 9); type: cell-based
Source text: Normal human dermal fibroblasts (NHDF) were used as an in vitro model. Cells were isolated from tissue specimens obtained from healthy patients undergoing plastic surgery at the Department of Plastic and Aesthetic Surgery (University Hospital Olomouc). The use of skin tissue was in accordance with the Ethics Committee of the University Hospital and Faculty of Medicine and Dentistry, Palacky University, Olomouc and all patients signed written informed consent. Fibroblasts were used between the 2nd and 4th passage. For all experiments the fibroblasts were seeded onto 96-well plates at a density of 0.8×10^5 cells/ml (0.2 ml per well) of cultivation medium (DMEM supplemented with fetal calf serum (10%, v/v), penicillin ([…]) and streptomycin (100 U/ml)). Test substances included compounds number 1, 3, 9, 15 and 20. Compounds were dissolved in DMSO and then diluted in serum free medium (DMEM supplemented with penicillin ([…]) and streptomycin (100 U/ml)). After 24 h incubation was cultivation medium changed to serum free medium containing test compound or DMSO (negative control). The final applied concentrations range was 3.9-31.3 μmol/ll. As a control serum free medium supplemented with appropriate concentration of DMSO (0.5%, v/v) was used. Rosmarinic acid was used as positive control. Each test compound was in parallel applied on two 96-well plates with NHDF. After 60 minutes incubation medium with test compound was discarded, cells were washed two-times with PBS and PBS supplemented with glucose (1 mg/ml) was applied. To study UVA photoprotection, a plate was exposed to a cytotoxic dose of UVA radiation (7.5 J/cm^2) using a solar simulator SOL 500 (Dr. Hoenle Technology, Germany) equipped with a H1 filter transmitting wavelengths of 320-400 nm. To study UVB photoprotection, a plate was exposed to a cytotoxic dose of UVB radiation (150 mJ/cm^2) using the solar simulator equipped with a H2 filter transmitting wavelengths of 295-320 nm. Intensity of UVA or UVB radiation was evaluated before each irradiation by UVA- or UVB-meter. Control (non-irradiated) plates were for the period of irradiation incubated in dark. After UVA or UVB exposure PBS with glucose was discarded and serum free medium was applied. After 24 hours (37° C., 5% CO2) cell damage was evaluated by neutral red (NR) incorporation into viable cells. Medium was discarded and NR solution (0.03% w/v, PBS) was applied. After 60 minutes NR solution was discarded, cells were fixed with a mixture of formaldehyde (0.5%, v/v) and CaCl2 (1%, m/v) in ratio 1:1 and then NR was dissolved in methanol (50%, v/v) with acetic acid (1%, v/v). After 5 minutes of intensive shaking absorbance was measured at 540 nm. Experiments were performed in four independent repetitions with use of cells from four donors to minimize individual sensitivity of donor cells. Photoprotective effect was evaluated by comparison of experimental data (absorbance) of test compounds with a positive control and a negative control (according to the following equation:
[formula] • As . . . absorbance of sample (cells pre-incubated with test compounds in serum free medium and irradiated) • Anc . . . absorbance of negative control (cells pre-incubated with s DMSO in serum free medium and non-irradiated=incubated in dark) • Apc . . . absorbance of positive control (cells pre-incubated with s DMSO in serum free medium and irradiated)

Structure (SMILES): Clc1nc(NCc2ccco2)c2ncn(C3CCCO3)c2n1 (stereo not shown) [Compound 15, 2-chloro-6-furfurylamino-9-(tetrahydrofuran-2-yl)purine]
- HaCaT viability (HaCaT; +UVA 5.0 J/cm2, 3.9 μmol/l): 116.4 % control
- HaCaT viability (HaCaT; +UVA 5.0 J/cm2, 7.8 μmol/l): 119.9 % control
- HaCaT viability (HaCaT; +UVA 5.0 J/cm2, 15.6 μmol/l): 119.9 % control
- HaCaT viability (HaCaT; +UVA 5.0 J/cm2, 31.3 μmol/l): 118.8 % control
- HaCaT viability (HaCaT; +UVA 5.0 J/cm2, 62.5 μmol/l): 115.7 % control
- HaCaT viability (HaCaT; +UVA 5.0 J/cm2, 125 μmol/l): 104 % control
- HaCaT viability (HaCaT; −UVA, 3.9 μmol/l): 106.5 % control
- HaCaT viability (HaCaT; −UVA, 7.8 μmol/l): 107.4 % control
- HaCaT viability (HaCaT; −UVA, 15.6 μmol/l): 108.6 % control
- HaCaT viability (HaCaT; −UVA, 31.3 μmol/l): 108.6 % control
- HaCaT viability (HaCaT; −UVA, 62.5 μmol/l): 109.2 % control
- HaCaT viability (HaCaT; −UVA, 125 μmol/l): 105 % control
- Protection (%) ([1]; UVA 7.5 J/cm^2, 3.9 μmol/l): 24.5%
- Protection (%) ([1]; UVA 7.5 J/cm^2, 7.8 μmol/l): 29.9%
- Protection (%) ([1]; UVA 7.5 J/cm^2, 15.6 μmol/l): 33.0%
- Protection (%) ([1]; UVA 7.5 J/cm^2, 31.3 μmol/l): 35.3%
- Protection (%) ([1]; UVB 150 mJ/cm^2, 3.9 μmol/l): 39.9%
- Protection (%) ([1]; UVB 150 mJ/cm^2, 7.8 μmol/l): 55.2%
- Protection (%) ([1]; UVB 150 mJ/cm^2, 15.6 μmol/l): 53%
- Protection (%) ([1]; UVB 150 mJ/cm^2, 31.3 μmol/l): 60.2%

Structure (SMILES): Clc1nc(NCC2CCCO2)c2ncn(C3CCCO3)c2n1 (stereo not shown) [Compound 20, 2-chloro-6-(tetrahydrofuran-2-ylmethylamino)-9-(tetrahydrofuran-2-yl)purine]
- HaCaT viability (HaCaT; +UVA 5.0 J/cm2, 3.9 μmol/l): 104.6 % control
- HaCaT viability (HaCaT; +UVA 5.0 J/cm2, 7.8 μmol/l): 112.1 % control
- HaCaT viability (HaCaT; +UVA 5.0 J/cm2, 15.6 μmol/l): 110.1 % control
- HaCaT viability (HaCaT; +UVA 5.0 J/cm2, 31.3 μmol/l): 121.4 % control
- HaCaT viability (HaCaT; +UVA 5.0 J/cm2, 62.5 μmol/l): 125.8 % control
- HaCaT viability (HaCaT; +UVA 5.0 J/cm2, 125 μmol/l): 125.9 % control
- HaCaT viability (HaCaT; −UVA, 3.9 μmol/l): 103.5 % control
- HaCaT viability (HaCaT; −UVA, 7.8 μmol/l): 102.9 % control
- HaCaT viability (HaCaT; −UVA, 15.6 μmol/l): 104.1 % control
- HaCaT viability (HaCaT; −UVA, 31.3 μmol/l): 108.6 % control
- HaCaT viability (HaCaT; −UVA, 62.5 μmol/l): 110.7 % control
- HaCaT viability (HaCaT; −UVA, 125 μmol/l): 110.5 % control
- Protection (%) ([1]; UVA 7.5 J/cm^2, 3.9 μmol/l): 5.9%
- Protection (%) ([1]; UVA 7.5 J/cm^2, 7.8 μmol/l): 10.7%
- Protection (%) ([1]; UVA 7.5 J/cm^2, 15.6 μmol/l): 11.5%
- Protection (%) ([1]; UVA 7.5 J/cm^2, 31.3 μmol/l): 16.2%
- Protection (%) ([1]; UVB 150 mJ/cm^2, 3.9 μmol/l): 39.8%
- Protection (%) ([1]; UVB 150 mJ/cm^2, 7.8 μmol/l): 58.3%
- Protection (%) ([1]; UVB 150 mJ/cm^2, 15.6 μmol/l): 58.2%
- Protection (%) ([1]; UVB 150 mJ/cm^2, 31.3 μmol/l): 60%

Structure (SMILES): CN(C)CCCN1c2ccccc2Sc2ccc(Cl)cc21 [chlorpromazine, reference compound]
- viability of HaCaT cells (HaCaT; UVA+, 3.1 μmol/l): below 80 % of control
- viability of HaCaT cells (HaCaT; UVA−, 25 μmol/l): below 70%

Structure (SMILES): c1csc(CNc2ncnc3c2ncn3C2CCCO2)c1 (stereo not shown) [Compound 9, 6-(thiophen-2-ylmethylamino)-9-(tetrahydrofuran-2-yl)purine]
- HaCaT viability (HaCaT; +UVA 5.0 J/cm2, 3.9 μmol/l): 122.7 % control
- HaCaT viability (HaCaT; +UVA 5.0 J/cm2, 7.8 μmol/l): 124.2 % control
- HaCaT viability (HaCaT; +UVA 5.0 J/cm2, 15.6 μmol/l): 120.5 % control
- HaCaT viability (HaCaT; +UVA 5.0 J/cm2, 31.3 μmol/l): 128.1 % control
- HaCaT viability (HaCaT; +UVA 5.0 J/cm2, 62.5 μmol/l): 129.9 % control
- HaCaT viability (HaCaT; +UVA 5.0 J/cm2, 125 μmol/l): 126.6 % control
- HaCaT viability (HaCaT; −UVA, 3.9 μmol/l): 101 % control
- HaCaT viability (HaCaT; −UVA, 7.8 μmol/l): 101.1 % control
- HaCaT viability (HaCaT; −UVA, 15.6 μmol/l): 100.4 % control
- HaCaT viability (HaCaT; −UVA, 31.3 μmol/l): 101.8 % control
- HaCaT viability (HaCaT; −UVA, 62.5 μmol/l): 103.9 % control
- HaCaT viability (HaCaT; −UVA, 125 μmol/l): 103.4 % control
- Protection (%) ([1]; UVA 7.5 J/cm^2, 3.9 μmol/l): 41.3%
- Protection (%) ([1]; UVA 7.5 J/cm^2, 7.8 μmol/l): 44.4%
- Protection (%) ([1]; UVA 7.5 J/cm^2, 15.6 μmol/l): 45.7%
- Protection (%) ([1]; UVA 7.5 J/cm^2, 31.3 μmol/l): 52.0%
- Protection (%) ([1]; UVB 150 mJ/cm^2, 3.9 μmol/l): 34.9%
- Protection (%) ([1]; UVB 150 mJ/cm^2, 7.8 μmol/l): 62.6%
- Protection (%) ([1]; UVB 150 mJ/cm^2, 15.6 μmol/l): 64.4%
- Protection (%) ([1]; UVB 150 mJ/cm^2, 31.3 μmol/l): 68.7%

Structure (SMILES): OCc1ccc(CNc2ncnc3c2ncn3C2CCCO2)o1 (stereo not shown) [Compound 3, 6-(5-hydroxymethylfuran-2-ylmethylamino)-9-(tetrahydrofuran-2-yl)purine]
- HaCaT viability (HaCaT; +UVA 5.0 J/cm2, 3.9 μmol/l): 103.88 % control
- HaCaT viability (HaCaT; +UVA 5.0 J/cm2, 7.8 μmol/l): 111.08 % control
- HaCaT viability (HaCaT; +UVA 5.0 J/cm2, 15.6 μmol/l): 107.93 % control
- HaCaT viability (HaCaT; +UVA 5.0 J/cm2, 31.3 μmol/l): 118.43 % control
- HaCaT viability (HaCaT; +UVA 5.0 J/cm2, 62.5 μmol/l): 120.78 % control
- HaCaT viability (HaCaT; +UVA 5.0 J/cm2, 125 μmol/l): 124.66 % control
- HaCaT viability (HaCaT; −UVA, 3.9 μmol/l): 100.1 % control
- HaCaT viability (HaCaT; −UVA, 7.8 μmol/l): 100.4 % control
- HaCaT viability (HaCaT; −UVA, 15.6 μmol/l): 102.1 % control
- HaCaT viability (HaCaT; −UVA, 31.3 μmol/l): 107.8 % control
- HaCaT viability (HaCaT; −UVA, 62.5 μmol/l): 106.4 % control
- HaCaT viability (HaCaT; −UVA, 125 μmol/l): 109.5 % control
- Protection (%) ([1]; UVA 7.5 J/cm^2, 3.9 μmol/l): 14.7%
- Protection (%) ([1]; UVA 7.5 J/cm^2, 7.8 μmol/l): 16.3%
- Protection (%) ([1]; UVA 7.5 J/cm^2, 15.6 μmol/l): 24.6%
- Protection (%) ([1]; UVA 7.5 J/cm^2, 31.3 μmol/l): 25.8%
- Protection (%) ([1]; UVB 150 mJ/cm^2, 3.9 μmol/l): 43.6%
- Protection (%) ([1]; UVB 150 mJ/cm^2, 7.8 μmol/l): 53.1%
- Protection (%) ([1]; UVB 150 mJ/cm^2, 15.6 μmol/l): 47.4%
- Protection (%) ([1]; UVB 150 mJ/cm^2, 31.3 μmol/l): 48.4%
